Where “and” joins values, the source holds several entries; their conditions need not be identical. Equal entries are not always repeated. Where two headings read alike, the source gives them in different places.
Columns and labels:
reduced SAH hydrolase = molecular target: T1, reduced SAH hydrolase (Bos taurus, UniProt Q3MHL4); experiment: 3H-adenosine displacement using reduced SAH hydrolase; type: binding, bovine
T1 construct: SAH hydrolase is purified with classical chromatographical methods to homogeneity from organs e.g. from bovine kidney; from tissue; host or cells: bovine kidney
T1 sequence (Q3MHL4 2-432 limits assumed): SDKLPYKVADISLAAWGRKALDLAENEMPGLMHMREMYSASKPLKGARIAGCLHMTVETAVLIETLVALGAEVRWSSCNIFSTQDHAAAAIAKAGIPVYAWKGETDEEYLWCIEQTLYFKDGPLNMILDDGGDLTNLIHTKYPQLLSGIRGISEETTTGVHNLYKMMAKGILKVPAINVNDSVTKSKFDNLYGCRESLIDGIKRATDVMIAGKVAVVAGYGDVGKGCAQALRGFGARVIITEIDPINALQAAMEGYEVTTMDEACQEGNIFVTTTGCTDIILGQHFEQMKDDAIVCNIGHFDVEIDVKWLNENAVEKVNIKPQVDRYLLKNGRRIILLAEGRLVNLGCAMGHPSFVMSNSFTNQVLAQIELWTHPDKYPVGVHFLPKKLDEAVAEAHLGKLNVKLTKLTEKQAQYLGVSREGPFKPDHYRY
Description: 100 μl reduced SAH hydrolase (1 μg/300 μl)
50 μl buffer—20 mM Tris, 40 mM Hepes pH 7.0
Therefore the samples are incubated over night. The assay mixture is separated through nitrocellulose filters with a filtration equipment.

active SAH hydrolase = molecular target: T2, active SAH hydrolase (Bos taurus, UniProt Q3MHL4); experiment: 3H-adenosine displacement using active SAH hydrolase; type: binding, bovine
T2 construct: SAH hydrolase is purified with classical chromatographical methods to homogeneity from organs e.g. from bovine kidney; from tissue; host or cells: bovine kidney
T2 sequence (Q3MHL4 2-432 limits assumed): T1 sequence (Q3MHL4 2-432 limits assumed)
Description: SAH hydrolase is purified with classical chromatographical methods to homogeneity from organs e.g. from bovine kidney. Fresh bovine kidney (450 g), obtained from the local slaughterhouse were homogenized in two volumes of 50 mM potassium phosphate buffer pH 7.0, 1 mM DTT, 1 mM EDTA and 10 mM PMSF. The homogenate was centrifuged at 20000×g for 60 min. […] After centrifugation at 20000×g for 30 min the precipitate was disolved in 300-400 ml 20 mM Tris/HCl pH 7.5, 1 mM DTT and 1 mM EDTA and dialyzed against the same buffer.

[1] = reduced SAH hydrolase, read-out: EC50 values of 3H-adenosine displacement, reduced SAH hydrolase
[2] = active SAH hydrolase, read-out: EC50 values of 3H-adenosine displacement, active SAH hydrolase

| EC50 (reduced SAH hydrolase; [1]) | EC50 (active SAH hydrolase; [2]) [µM] | Molecule | EC50 (reduced SAH hydrolase) [µM] | EC50 (active SAH hydrolase) [µM] |
| --- | --- | --- | --- | --- |
| 0.63 µM | 0.094 | Nc1ncnc2c1ncn2[C@H]1C[C@H](O)[C@@H](CO)O1 [2′-deoxyadenosine] | – | – |
| > 100 µM | 10 | Nc1ncnc2c1ncn2[C@@H]1O[C@H](COP(=O)(O)OP(=O)(O)O)[C@@H](O)[C@H]1O [ADP] | – | – |
| 100 µM and > 100 µM | 10 | Nc1ncnc2c1ncn2[C@@H]1O[C@H](COP(=O)(O)O)[C@@H](O)[C@H]1O [AMP] | – | – |
| 0.4 µM | 0.246 | Nc1ncnc2c1ncn2[C@@H]1O[C@H](CSCC[C@H](N)C(=O)O)[C@@H](O)[C@H]1O [SAH, S-adenosylhomocysteine] | – | – |
| > 100 µM | 11.5 | Nc1ncnc2nc[nH]c12 [adenine] | – | – |
| 5 µM | 5 | N[C@@H](CCS)C(=O)O [homocysteine] | – | – |
| 10 µM | 10 | OC[C@H]1O[C@@H](n2cnc3c(O)ncnc32)[C@H](O)[C@@H]1O [inosine] | – | – |
| – | – | Cn1c(=O)c2[nH]cnc2n(C)c1=O [theophylline] | > 100 | > 100 |
| 10 µM | 0.18 | diadenosine-dialdehyde | – | – |

| Molecule | EC50 (reduced SAH hydrolase; [1]) | EC50 (active SAH hydrolase; [2]) [µM] | EC50 (reduced SAH hydrolase) [µM] | EC50 (active SAH hydrolase) [µM] |
| --- | --- | --- | --- | --- |
| CCNC(=O)[C@H]1O[C@@H](n2cnc3c(N)ncnc32)[C@H](O)[C@@H]1O [NECA] | > 100 µM | 0.24 | – | – |

From US6395256B1 (priority 1997, dated 2002)
